Assay results reported in US7910337B2, “Method for identifying drug-sensitizing antisense DNA fragments and use thereof” (priority 2006, dated 2011).

What was measured:
[1] = tested on: S. aureus engineered with murB antisense
MetRS antisense clones = format: cell-based, B. anthracis
[2] = tested on: B. anthracis murB-2 antisense strain

## CO/N=C(\C(=O)N[C@@H]1C(=O)N2C(C(=O)[O-])=C(C[N+]3(C)CCCC3)CS[C@H]12)c1csc(N)n1 [cefepime]
[1]
  IC50 shift (sensitivity), antibiotic panel: ≥ 4 fold

## CO/N=C(\C(=O)N[C@@H]1C(=O)N2C(C(=O)O)=C(COC(C)=O)CS[C@H]12)c1csc(N)n1 [cefotaxime]
MetRS antisense clones
  difference in sensitivity with and without inducer: no difference in sensitivity
[2]
  IC50 shift: 343
[1]
  IC50 shift (sensitivity), antibiotic panel: ≥ 4 fold

## CO[C@@]1(NC(=O)Cc2cccs2)C(=O)N2C(C(=O)O)=C(COC(N)=O)CS[C@@H]21 [cefoxitin]
[1]
  IC50 shift: 7.8
  IC50 shift (sensitivity), antibiotic panel: ≥ 4 fold

## Cc1nnc(SCC2=C(C(=O)O)N3C(=O)[C@@H](NC(=O)Cn4cnnn4)[C@H]3SC2)s1 [cefozolin]
[1]
  IC50 shift (sensitivity), antibiotic panel: ≥ 4 fold

## CO/N=C(\C(=O)N[C@@H]1C(=O)N2C(C(=O)O)=C(CSc3nc(=O)c(=O)[nH]n3C)CS[C@H]12)c1csc(N)n1 [ceftriaxone]
[1]
  IC50 shift (sensitivity), antibiotic panel: ≥ 4 fold

## Cc1onc(-c2c(Cl)cccc2Cl)c1C(=O)N[C@@H]1C(=O)N2[C@@H]1SC(C)(C)[C@@H]2C(=O)O [dicloxacillin]
[1]
  IC50 shift: 5.8
  IC50 shift (sensitivity), antibiotic panel: ≥ 4 fold

## Cc1onc(-c2ccccc2)c1C(=O)N[C@@H]1C(=O)N2[C@@H]1SC(C)(C)[C@@H]2C(=O)O [oxacillin]
[1]
  IC50 shift (sensitivity), antibiotic panel: ≥ 4 fold

## CCN1CCN(C(=O)N[C@@H](C(=O)N[C@@H]2C(=O)N3[C@@H]2SC(C)(C)[C@@H]3C(=O)O)c2ccccc2)C(=O)C1=O [pipericillin]
[1]
  IC50 shift (sensitivity), antibiotic panel: ≥ 4 fold
